Reference: patent publication US20230139826A1 (NONO INC., priority 2020, published 2023)
Residues, ends and D or L forms follow the SMILES beside them.

Key:
[1] = Nerinetide plasma levels in ESCAPE-NA1 subjects with and without alteplase; type: in vivo, human
Procedure: All patients had standard assessments of demographic characteristics, medical history, laboratory values and stroke severity (NIHSS score). In some patients, up to 6 consecutive blood samples were drawn following dosing for pharmacokinetic analysis of nerinetide levels.
Nerinetide plasma levels were obtained from 22 subjects in ESCPAE-NA1 and previously acquired data from 8 healthy volunteer subjects receiving a single dose of 2.6 mg/kg nerinetide intravenously. Time 0 is a preinfusion time-point. […] The bars represent standard error of the mean. […] In the presence of alteplase, nerinetide's maximum level was reduced by more than 50% with decline to background level by 60 minutes. […] (p=0.0119, mixed effects linear regression).

[2] = In-vitro peptide degradation assay in human plasma with rt-PA or TNK
Procedure: (§1) To determine nerinetide stability in the presence of rt-PA in plasma, we use an in-vitro peptide content analysis by HPLC. In brief, Nerinetide or D-Tat-L-2B9c were spiked into rat or human plasma at a concentration of 65 ug/ml. rt-PA was added after the baseline time-point was collected, at the specified concentrations. rt-PA administration followed the clinical dosing approach [10% bolus dose followed by 60-mins infusion (90% of the dose)], using a Harvard apparatus pump. Sample collection following IV bolus was performed at 5 min, 15 min, 30 min and 45 min post-dose. At each time point, approximately 100 uL of plasma was collected from each vial using a fresh syringe. Plasma was then collected and stored at -80° C. until analyzed.
(§2) Nerinetide or D-Tat-L2B9c was extracted by precipitation with 1M perchloric acid. All analyses were performed on an Agilent 1260 Infinity Quaternary LC System (Agilent Technologies, Santa Clara, Calif., USA) and on a 25 cm [YMAA12S052546WT] C-18 RP-HPLC column (Agilent Technologies, Santa Clara, Calif., USA). The column was equilibrated with 10% acetonitrile with 0.1% TFA at 40° C. The eluent flow was 1.5 ml/min (gradient from 10% to 35% acetonitrile in 0.1% TFA) The UV trace was recorded at 220 nm. Concentrations of nerinetide or D-Tat-L-2B9c were derived from calibration standards obtained by spiking the agent into plasma.

[3] = test system: embolic middle cerebral artery occlusion (eMCAO); test: Rat embolic middle cerebral artery occlusion model with alteplase reperfusion; type: in vivo, Sprague-Dawley rats
Procedure: To test this, male Sprague-Dawley rats (10-12 weeks old; 270-310 g; Charles River, Montreal, QC, Canada) were subjected to embolic middle cerebral artery occlusion (eMCAO), produced by the introduction of an autologous blood thrombus into the middle cerebral artery. Reperfusion was achieved by treatment with intravenous alteplase at a total dose of 5.4 mg/kg beginning at 90 minutes after ischemia onset. Alteplase was administered using the human injection protocol in which 10% of the total dose is given as a bolus, with the remainder 90% of the dose being given over a 60-minute infusion. […] This dose was chosen because in pilot studies, higher doses of alteplase (10× human dose) produced unacceptable mortality rates due to hemorrhagic conversions of strokes. Nerinetide was administered either 30 minutes prior to, or concurrently with, the start of the alteplase administration (FIG. 5A) at a dose of 7.6 mg/kg. […] Infarct volumes, hemispheric swelling and neurological scores were evaluated at 24 hours.
Male Sprague-Dawley rats were subjected to eMCAO as already described. Nerinetide (7.6 mg/kg) or D-Tat-L-2B9c (7.6 mg/kg) were given as bolus injections at 60 minutes. Alteplase (5.4 mg/kg over 60 min) was also started at 60 min after eMCAO, concurrently with the active agent that inhibits PSD-95. Neurological scoring, infarct volume, and hemispheric swelling were assessed at 24 hours (FIG. 8A).
The studies were designed to have 80% power to detect a 40% absolute difference between control and treatment groups at p=0.05. Animal randomization, drug allocation and treatment drug preparation were performed by a research associate not directly involved with surgical or outcome assessment. Nerinetide and D-Tat-L-2B9c were freshly prepared at a concentration of 7.6 mg/mL in 500 uL aliquots. Alteplase was prepared from lyophilized drug and, like matching placebo, stored in identical glass tubes. Drugs were kept at 4° C. until 10 minutes prior to use. The surgeon and the investigators responsible for the surgery, stroke volume measurement, behavioural assessment and statistical analysis were blinded to treatment allocation.

[4] = Plasma half-life in humans; type: in vivo; settings: intravenous, 2.6 mg/kg, human, human equivalent concentrations
[5] = test system: transient middle cerebral artery occlusion (tMCAO); test: Rat transient middle cerebral artery occlusion model
Procedure: Nerinetide and lodoxamide was administered to rats intravenously as a bolus injection, 60 minutes after tMCAo. […] Bars in A and represent mean±SD, with all individual data points plotted. Asterisks in A indicate P<0.01 when compared to the vehicle group (one-way ANOVA post hoc Tukey's correction for multiple comparisons test) N=12-14 animals/group. […] Significant differences are indicated with an asterisk when compared to the vehicle group (Kruskal-Wallis analysis of variance on ranks with a post-hoc Dunn's correction for multiple comparisons test, *P<0.01). Vehicle: PBS alone. Scrambled: ADA peptide incapable of binding PSD-95.
All animals subjected to surgery had their physiological parameters measured prior to MCA occlusion. PE-50 polyethylene tubing was inserted into the right femoral artery for invasive monitoring of mean arterial blood pressure and for obtaining blood samples to measure blood gases (pH, PaO2, and PaCO2), electrolytes (Na^+, K^+, iCa) and plasma glucose at baseline [Blood gas cartridge CG8+, VetScan i-STAT 1 Analyzer].
Infarct volumes and hemispheric swelling were evaluated at 24 hours post-stroke from standard brain slices stained with 2% 2,3,5-triphenyltetrazolium chloride (Sigma Aldrich, St. Louis, Md., USA)(7). Neurologic scoring was conducted at 24 hours after stroke onset using forelimb-placing tests comprising of frontal visual placing, sideways visual placing, frontal tactile placing, sideways tactile placing, and vertical tactile placing (scores range from 0-2 in each component for a maximum of 12 indicating maximum impairment.

[6] = In-vivo pharmacokinetic analysis in rats; settings: rat
Procedure: Since the effect of nerinetide in the ESCAPE-NA1 trial was negated by alteplase, we next evaluated the effects of alteplase on pharmacokinetics (PK) of nerinetide in rats. Alteplase was administered at 0.9 mg/kg (human dose) and at 5.4 mg/kg (6 times the human dose) in an infusion that simulated the clinical protocol (10% bolus followed by a 60 min infusion of the remainder). Nerinetide was administered as an intravenous bolus at the start of the alteplase infusion at 7.6 mg/kg.
The goal of these study was to evaluate nerinetide PK parameter changes when in the presence of circulating rt-PA and plasmin. Male naïve rats received an intravenous administration of either nerinetide alone, nerinetide plus rt-PA (0.9 mg/kg) or nerinetide plus rt-PA (5.4 mg/kg). Sample collection was performed pre-dose and 0 min, 5 min, 10 min, 20 min, 50 min post-dose. At each time point, approximately 300 uL of blood was sampled from each animal using a fresh syringe. Blood samples were collected in previously prepared Eppendorf tubes [30 ul of EDTA 2.5%] and centrifuged for 20 minutes to separate plasma and cell components.
Plasma samples were stored at −80° C. until analyzed.
Changes in peptide concentration were analyzed using a two-way repeated measures ANOVA, followed by the Sidak correction for multiple comparisons. The pharmacokinetic (PK) parameters of peak plasma concentration (Cmax) and the area under the plasma concentration-time curve from 0 to last measured concentration (AUC) were obtained with PKsolver Software (USA) using a non-compartmental analysis and employing a linear interpolation. For stroke studies, differences between groups were tested using a One-way ANOVA with a Tukey's correction for multiple comparisons. […] Values for animals experiencing premature death due to any reason including subarachnoid hemorrhage or hemorrhagic transformation were imputed to reflect the worst neurological score and the maximum stroke volume achieved across all animals.

[7] = In-vitro peptide degradation assay in rat plasma with rt-PA or TNK
Procedure: as §1, §2

[8] = 30-minute dose separation between nerinetide and alteplase
[9] = nerinetide 7.6 mg/kg iv bolus with alteplase 0.9 mg/kg (human dose)
[10] = nerinetide 7.6 mg/kg iv bolus with alteplase 5.4 mg/kg

## CC[C@H](C)[C@H](NC(=O)[C@H](CO)NC(=O)[C@H](CO)NC(=O)[C@H](CC(C)C)NC(=O)[C@H](CCCCN)NC(=O)[C@H](CCCN=C(N)N)NC(=O)[C@H](CCCN=C(N)N)NC(=O)[C@H](CCCN=C(N)N)NC(=O)[C@H](CCC(N)=O)NC(=O)[C@H](CCCN=C(N)N)NC(=O)[C@H](CCCN=C(N)N)NC(=O)[C@H](CCCCN)NC(=O)[C@H](CCCCN)NC(=O)[C@H](CCCN=C(N)N)NC(=O)CNC(=O)[C@@H](N)Cc1ccc(O)cc1)C(=O)N[C@@H](CCC(=O)O)C(=O)N[C@@H](CO)C(=O)N[C@@H](CC(=O)O)C(=O)N[C@H](C(=O)O)C(C)C [Nerinetide] (H-YGRKKRRQRRRKLSSIESDV-OH)
[1]; absence of alteplase
  time of decline of plasma level to background: about 120 minutes
[1]; absence of alteplase, 2.6 mg/kg iv
  time at which plasma peak levels were reached: ten
[1]; presence of alteplase
  AUC change: similarly reduced
  reduction of maximum plasma level: more than 50%
  time of decline of plasma level to background: 60 min
[2]; TNK 6.25 ug/ml
  elimination in human plasma with tenecteplase (TNK): rapid elimination
[2]; absence of alteplase
  stability alone in human plasma: stable
[2]; rt-PA 135 ug/ml
  degradation in human plasma with alteplase: rapid degradation
[3]; [8]
  hemispheric swelling: reducing hemispheric swelling
  neurological scores: improving neurological scores
[3]; nerinetide alone 7.6 mg/kg, 60 minutes after eMCAO, 24 hours
  reduction of infarction volume: 59.2%
[3]; nerinetide alone 60 minutes after eMCAO (FIG. 5B), control 427±27
  infarction volume: 175±40 mm^3
[3]; nerinetide alone 60 minutes after eMCAO, absence of alteplase (FIG. 8B), control 458±39
  infarction volume: 296±66 mm^3
[3]; nerinetide at 60 minutes followed by alteplase 30 minutes later
  infarct volume reduction: 70%
[3]; peptide 7.6 mg/kg and alteplase 5.4 mg/kg both at 60 min after eMCAO
  effect on infarction volume when given concurrently with alteplase: eliminated completely
[4]
  half-life: 5 to 10 min
[5]; doses as low as 0.25 mg/kg
  neurological function 24 hours after tMCAo: improvement
[5]; doses as low as 0.25 mg/kg, vs vehicle
  infarct volume 24 hours after tMCAo: significant reduction
[5]; doses of as little as 0.025 mg/kg
  efficacy in tMCAo: effective
[5]; doses up to at least 25 mg/kg
  efficacy in tMCAo: effective
[5]; rat tMCAO, comparison of the two peptides
  reducing infarction volume, hemispheric swelling and improving neurological scores: equally effective
[5]; rat tMCAo dose-response
  dose with the highest efficacy: about 15 mg/kg
[5]; rat tMCAo, iv bolus 60 minutes after tMCAo, with lodoxamide
  effective dosage range (reducing infarction size and neurologic deficit): 0.025-25 mg/kg
[6]; male, plasma, intravenous, 7.6 mg/kg, human equivalent concentrations
  half-life: 5 to 10 min
[6]; [9]
  change of AUC of nerinetide: non-significant reduction
  change of Cmax of nerinetide: non-significant reduction
[6]; [10]
  lowering of the mean AUC of nerinetide: 44%
  lowering of the mean Cmax of nerinetide: 49.5%
[7]; 65 ug/ml nerinetide, 37° C., alteplase over 60 minutes
  nerinetide content in rat plasma on addition of alteplase: reduced the nerinetide content in rat plasma in a concentration-dependent manner
[7]; TNK 37.5 ug/ml
  elimination in rat plasma with tenecteplase (TNK): rapid elimination
[7]; absence of alteplase
  stability alone in rat plasma: stable
[7]; rt-PA 135 ug/ml
  degradation in rat plasma with alteplase: rapid degradation
